Measurements published in US20250275968A1, “INHIBITORS OF TAU PROTEINS” (DEUTSCHES ZENTRUM FÜR NEURODEGENERATIVE ERKRANKUNGEN E.V., priority 2022, published 2025).
Where a name gives a salt, the structure may show the parent alone.

Columns and labels:
2N4R tau = molecular target: T1, 2N4R tau (Homo sapiens, UniProt P10636); assay: In vitro seeded aggregation/fibrillization assay of 2N4R tau (ThT fluorescence); format: biochemical; settings: for In vitro seeded aggregation/fibrillization of full-length tau (ThT fluorescence curves): 2N4R tau, various formulations
T1 construct: Full-length 2N4R tau was incubated with Osimertinib mesylate
T1 sequence (P10636 1-441 isoform P10636-8): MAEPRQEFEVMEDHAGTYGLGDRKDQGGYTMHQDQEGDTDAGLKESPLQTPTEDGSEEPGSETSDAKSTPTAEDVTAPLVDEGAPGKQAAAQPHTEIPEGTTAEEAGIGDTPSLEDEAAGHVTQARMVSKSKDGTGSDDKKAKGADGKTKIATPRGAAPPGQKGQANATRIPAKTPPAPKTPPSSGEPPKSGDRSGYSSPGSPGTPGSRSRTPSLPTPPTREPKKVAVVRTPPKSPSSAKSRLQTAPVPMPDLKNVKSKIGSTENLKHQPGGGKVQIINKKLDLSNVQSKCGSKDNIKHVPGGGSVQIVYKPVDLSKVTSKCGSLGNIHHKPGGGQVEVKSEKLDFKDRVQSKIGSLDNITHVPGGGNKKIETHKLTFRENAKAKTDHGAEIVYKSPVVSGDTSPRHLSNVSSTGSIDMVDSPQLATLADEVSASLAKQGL
Protocol: Aggregation of 2N4R Tau was performed using a previously published co-factor-free aggregation protocol, with a few modifications (Reference: Chakraborty, P. et al. Co-factor-free aggregation of tau into seeding-competent RNA-sequestering amyloid fibrils. Nat. Commun. 12, 4231 (2021)). Aggregation experiments used the Tau protein stock prepared in 25 mM HEPES pH 7.4, 1 mM TCEP. Stocks of compounds were prepared in aggregation buffer (25 mM HEPES, 10 mM KCl, 5 mM MgCl2, pH 7.2) or in DMSO (10 mM compound).
To prepare the Tau fibril seeds by de novo aggregation, 2N4R Tau at a monomer concentration of 25 μM was diluted in aggregation buffer. The working concentration of TCEP in the aggregation mixture was <25 μM after dilution of the stock. To this mixture, Thioflavin T (ThT) was added to a final concentration of 50 μM. A total volume of 100 μL of the Tau-ThT mixture was incubated in a well of a 96-well microplate (Greiner Bio-one), in the presence of two polytetrafluoroethylene beads. The microplate was subjected to a program implemented in a Tecan Spark plate reader that involved incubating at 37° C., with intervals of double orbital shaking and ThT fluorescence emission measurement. The excitation wavelength for ThT was set as 430 nm and the emission wavelength was 485 nm. Details of this plate reader program were published previously (Reference: Chakraborty, P. et al. Co-factor-free aggregation of tau into seeding-competent RNA-sequestering amyloid fibrils. Nat. Commun. 12, 4231 (2021)). […] The fibril-containing mixture collected from the microplate served as a seeding mixture for the subsequent aggregation assays.
Seeded aggregation assays were performed as described above but with 1.0% of the well volume occupied by the seeding mixture sonicated for 1 minute. The assays were performed in the presence and absence of compounds, and working concentrations ranged from 0-250 μM compound.
Analyses of the fluorescence curves were performed using Graphpad PRISM version 8. Fluorescence data were fit to a sigmoid function. The number of hours corresponding to half-maximal ThT Fluorescence™ as well as the span of fluorescence intensity (Span) were determined for each sigmoid curve. Statistically significant differences were determined by one-way ANOVA analysis with Dunnett's multiple comparison test or unpaired t-test.

2N4R Tau fibrils = molecular target: T2, 2N4R Tau fibrils (Homo sapiens, UniProt P10636); assay: Saturation transfer difference (STD) NMR with tau fibrils; format: binding; settings: 48-fold excess of compound, 100 mM NaCl, 2.5% (v/v) DMSO, pH 6.8, 37° C.
T2 construct: Full-length 2N4R tau was incubated with Osimertinib mesylate
T2 sequence (P10636 1-441 isoform P10636-8): as above
Protocol: 2N4R Tau fibrils were prepared using the aggregation procedure described in the section in vitro assay 1 without Thioflavin T. The mole ratio of “free” compound to fibrils was 48:1 (corresponding to a total compound concentration of 250 μM and a total fibril concentration of 5 μM Tau). The NMR samples were prepared in 50 mM sodium phosphate with 100 mM NaCl and 2.5% (v/v) DMSO at pH 6.8. The spectra were recorded at 37° C. using a Bruker 700 MHz spectrometer equipped with a triple resonance cryoprobe. 1D ^1H-NMR STD spectra were acquired in an interleaved manner, alternating between off-resonance irradiation at 60 ppm and on-resonance irradiation at −2 ppm.

[1] = system: HEK293T biosensor cells expressing the human tau repeat domain (RD) harboring the P301L/V337M mutation (TauRD^LM-GFP); assay: HEK biosensor cell tau seeding assay; format: cell-based; settings: for compound concentration up to which total amount of cells remained close to 100% (low toxicity): HEK biosensor cells, relative to vehicle (DMSO)
Protocol: Compound stock solutions were prepared as 10 mM compound in DMSO.
HEK293T biosensor cells expressing the human tau repeat domain (RD) harboring the P301L/V337M mutation and fused to a C-terminal GFP tag (named TauRD^LM-GFP) were engineered to probe Tau seeding in cellula (Reference: Liu, S., Hossinger, A., Heumüller, S E. et al. Highly efficient intercellular spreading of protein misfolding mediated by viral ligand-receptor interactions. Nat Commun 12, 5739 (2021). https://doi.org/10.1038/s41467-021-25855-2). HEK cells expressing the P301L human full-length Tau, C-terminally tagged with GFP were incubated with pre-sonicated hTau40^P301L fibrils to induce Tau aggregate formation. Cells were harvested and the resulting cell lysate was used to seed Tau aggregation in further experiments with HEK TauRD^LM-GFP cells.
In a typical seeded assay, HEK cells were incubated with cell lysate, compounds (0-40 μM) and lipofectamine for 22-48 hours. Negative control experiments in the absence of compounds (only with vehicle DMSO) and in the presence of cell lysate were performed in parallel.
Dose response curves were constructed by quantifying the number of cells with aggregates for each compound concentration. The curves were fitted with a sigmoid function using Graphpad PRISM version 8. The inhibitory concentration at 50% activity (IC50) was determined for each compound.

[2] = 2N4R tau^wt, mole ratios 1:3 and 1:10

Compound | In vitro seeded aggregation/fibrillization of full-length tau (ThT fluorescence curves) (2N4R tau) | STD effect with tau fibrils (fibril binding epitopes) (2N4R Tau fibrils) | compound concentration up to which total amount of cells remained close to 100% (low toxicity) [1] | normalized Span of ThT fluorescence (2N4R tau; [2]) | normalized Tm (midpoint of aggregation curve) (2N4R tau; [2]) | inhibitory activity towards tau aggregation (2N4R tau; 2.5% (v/v) DMSO) | inhibition of seeded aggregation of tau in HEK biosensor cells ([1]; 0.25 μM or 7.5 μM, 22 hours, lipofectamine) | aggregate formation in cells ([1]; higher concentration (7.5 μM), 22 hours)
C=CC(=O)Nc1cc(Nc2nccc(-c3c[nH]c4ccccc34)n2)c(OC)cc1N(C)CCN(C)C [Compound 3, N-[2-[[2-(dimethylamino)ethyl]methylamino]-5-[[4-(1H-indol-3-yl)-2-pyrimidinyl]amino]-4-methoxyphenyl]-2-Propenamide] | inhibited in a dose-dependent manner | Protons showing STD effects | about 5.0 μM |  |  |  |  | 
C=CC(=O)Nc1cc(Nc2nccc(-c3cn(C)c4ccccc34)n2)c(OC)cc1N(C)CCN(C)C [Osimertinib mesylate, N-[2-(2-Dimethylaminoethylmethylamino)-4-methoxy-5-[[4-(1-methylindol-3-yl)pyrimidin-2-yl]amino]phenyl]prop-2-enamide Mesylate Salt] |  |  |  | statistically lower normalized Span values | do not show a clear dose-dependence |  |  | 
C=CC(=O)Nc1cc(Nc2nccc(-c3cn(C)c4ccccc34)n2)c(OC)cc1N(C)CCN(C)C [Osimertinib, N-[2-(2-Dimethylaminoethylmethylamino)-4-methoxy-5-[[4-(1-methylindol-3-yl)pyrimidin-2-yl]amino]phenyl]prop-2-enamide] | inhibited in a dose-dependent manner | Protons showing STD effects | about 5.0 μM |  |  | strong inhibitory activity | inhibits the seeded aggregation of tau | decreased aggregate formation
